Numbers after ± are expanded uncertainties.
Details: Fluid (supercritical or subcritical phases), Bellows volumetry

CCCC [butane]
mass density (360 K, 50000 kPa): 585.47 ± 0.88 kg/m3
mass density (360 K, 60000 kPa): 595.41 ± 0.88 kg/m3
mass density (360 K, 70000 kPa): 604.19 ± 0.88 kg/m3
mass density (360 K, 80000 kPa): 612.02 ± 0.88 kg/m3
mass density (360 K, 90000 kPa): 619.58 ± 0.88 kg/m3
mass density (360 K, 100000 kPa): 626.29 ± 0.76 kg/m3
mass density (360 K, 120000 kPa): 638.57 ± 0.76 kg/m3
mass density (360 K, 140000 kPa): 649.66 ± 0.76 kg/m3
mass density (360 K, 160000 kPa): 659.24 ± 0.76 kg/m3
mass density (360 K, 180000 kPa): 668.57 ± 0.76 kg/m3
mass density (360 K, 200000 kPa): 676.57 ± 0.76 kg/m3
mass density (400 K, 50000 kPa): 556.11 ± 0.88 kg/m3
mass density (400 K, 60000 kPa): 567.8 ± 0.88 kg/m3
mass density (400 K, 70000 kPa): 578.11 ± 0.88 kg/m3
mass density (400 K, 80000 kPa): 587.28 ± 0.88 kg/m3
mass density (400 K, 90000 kPa): 595.58 ± 0.88 kg/m3
mass density (400 K, 100000 kPa): 603.28 ± 0.76 kg/m3
mass density (400 K, 120000 kPa): 617 ± 0.76 kg/m3
mass density (400 K, 140000 kPa): 629.05 ± 0.76 kg/m3
mass density (400 K, 160000 kPa): 639.75 ± 0.76 kg/m3
mass density (400 K, 180000 kPa): 649.69 ± 0.76 kg/m3
mass density (400 K, 200000 kPa): 658.6 ± 0.76 kg/m3
mass density (440 K, 50000 kPa): 527.49 ± 0.76 kg/m3
mass density (440 K, 60000 kPa): 541.19 ± 0.76 kg/m3
mass density (440 K, 70000 kPa): 552.99 ± 0.76 kg/m3
mass density (440 K, 80000 kPa): 563.51 ± 0.76 kg/m3
mass density (440 K, 90000 kPa): 572.93 ± 0.76 kg/m3
mass density (440 K, 100000 kPa): 581.43 ± 2.9 kg/m3
mass density (440 K, 120000 kPa): 596.67 ± 2.9 kg/m3
mass density (440 K, 140000 kPa): 609.84 ± 2.9 kg/m3
mass density (440 K, 160000 kPa): 621.49 ± 2.9 kg/m3
mass density (440 K, 180000 kPa): 632.12 ± 2.9 kg/m3
mass density (440 K, 200000 kPa): 641.85 ± 2.9 kg/m3
mass density (500 K, 50000 kPa): 485.76 ± 0.76 kg/m3
mass density (500 K, 60000 kPa): 502.86 ± 0.76 kg/m3
mass density (500 K, 70000 kPa): 517.01 ± 0.76 kg/m3
mass density (500 K, 80000 kPa): 529.24 ± 0.76 kg/m3
mass density (500 K, 90000 kPa): 540.26 ± 0.76 kg/m3
mass density (500 K, 100000 kPa): 550.18 ± 2.9 kg/m3
mass density (500 K, 120000 kPa): 567.64 ± 2.9 kg/m3
mass density (500 K, 140000 kPa): 582.51 ± 2.9 kg/m3
mass density (500 K, 160000 kPa): 595.57 ± 2.9 kg/m3
mass density (500 K, 180000 kPa): 607.21 ± 2.9 kg/m3
mass density (500 K, 200000 kPa): 617.68 ± 2.9 kg/m3
mass density (550 K, 50000 kPa): 452.74 ± 0.76 kg/m3
mass density (550 K, 60000 kPa): 472.65 ± 0.76 kg/m3
mass density (550 K, 70000 kPa): 489.04 ± 0.76 kg/m3
mass density (550 K, 80000 kPa): 503.05 ± 0.76 kg/m3
mass density (550 K, 90000 kPa): 515.43 ± 0.76 kg/m3
mass density (550 K, 100000 kPa): 526.47 ± 2.9 kg/m3
mass density (550 K, 120000 kPa): 545.49 ± 2.9 kg/m3
mass density (550 K, 140000 kPa): 561.8 ± 2.9 kg/m3
mass density (550 K, 160000 kPa): 575.61 ± 2.9 kg/m3
mass density (550 K, 180000 kPa): 588.11 ± 2.9 kg/m3
mass density (550 K, 200000 kPa): 599.35 ± 2.9 kg/m3
mass density (600 K, 50000 kPa): 421.67 ± 0.76 kg/m3
mass density (600 K, 60000 kPa): 444.04 ± 0.76 kg/m3
mass density (600 K, 70000 kPa): 462.25 ± 0.76 kg/m3
mass density (600 K, 80000 kPa): 477.92 ± 0.76 kg/m3
mass density (600 K, 90000 kPa): 491.53 ± 0.76 kg/m3
mass density (600 K, 100000 kPa): 503.41 ± 2.9 kg/m3
mass density (600 K, 120000 kPa): 524.18 ± 2.9 kg/m3
mass density (600 K, 140000 kPa): 541.56 ± 2.9 kg/m3
mass density (600 K, 160000 kPa): 556.81 ± 2.9 kg/m3
mass density (600 K, 180000 kPa): 570.23 ± 2.9 kg/m3
mass density (600 K, 200000 kPa): 582.23 ± 2.9 kg/m3

Source: the NIST ThermoML archive (doi:10.1007/s10765-012-1383-x)
